The structures appear in SMILES notation. Square brackets hold non-standard residues; d marks the D form. Peptide text beside a SMILES is read from it. * marks the point of attachment. Dolaproine = CO[C@@H]([C@@H]1CCCN1)[C@@H](C)C(=O)O; Dil = CC[C@H](C)[C@H](NC)[C@@H](CC(=O)O)OC; X1 = C[C@@H](N*)[C@@H](O)c1ccccc1; NMeV = CN[C@H](C(=O)O)C(C)C

Assay type in all cases: cell-based
Experiment [1] deals with BT-20 cell line (low c-Met expressing). Briefly: In vitro cytotoxicity (CellTiter-Glo), BT-20. To be noted: 4 nights incubation; n = 2; IC = cytotoxicity shown but curve not optimal for accurate EC50. How it is done: (§1) Cytotoxicity of the ADCs from Example 3 comprising either MCvcPABC-MMAE or MTvcCompound 1 was tested in vitro against a variety of tumor cell lines expressing the target surface antigen (c-Met) as described below. The following cell lines were used (Table 9.1).
(§2) Each of the cell lines shown in Table 9.1 was grown in the respective complete growth medium until assay day. After removal from the culture vessels using Trypsin-EDTA, cells were counted using a Scepter™ Cell Counter (Sigma-Aldrich Canada, Oakville, ON). Cells were diluted in complete growth medium to 20,000 cells/mL, such that 50 μL/well in 384-well plates equaled 1,000 cells/well, unless otherwise specified. All ADCs were diluted to 15 nM starting concentration in complete growth medium (RPMI 1640) followed by a 1:3 dilution in sterile 96-well dilution plates (final volume 200 μL/well). Samples (20 μL/well) were transferred into a 384-well plate in duplicate. Plates were then seeded with 20,000 cell/mL suspension of test cell line (50 μL/well), unless otherwise specified. […] After incubation, cell viability was quantified by adding 1×CellTiter-Glo® reagent (Promega Corporation, Madison, WI) at 10 μL/well. After incubating for 30 min in the dark, luminescence was measured using a Synergy™ H1 Hybrid Multi-Mode Reader (BioTek Instruments Inc., Winooski, VT). Data was analyzed with Prism 7 software (GraphPad Prism Software).
Background: Cellular ATP, detected with luciferase, serves as a proxy for viable cell number.

For experiment [2], the system named is HCC827 cell line (mid c-Met expressing). The experiment in a line: In vitro cytotoxicity (CellTiter-Glo), HCC827. To be noted: 4 nights incubation; n = 2. How it is done:
as §1, §2

Experiment [3] concerns EBC-1 cell line (high c-Met-expressing). The experiment in a line: In vitro cytotoxicity (CellTiter-Glo), EBC-1. To be noted: 4 nights incubation; n = 2. How it is done: as §1, §2
In experiment [4] the test system is H292 cell line (mid c-Met expressing). Briefly: In vitro cytotoxicity (CellTiter-Glo), H292. To be noted: 4 nights incubation; n = 2; IC = cytotoxicity shown but curve not optimal for accurate EC50. How it is done: as §1, §2

Usually EC50 stands for the concentration at which the effect is half-maximal. Regarding `CC[C@H](C)[C@@H]([C@@H](CC(=O)N1CCC[C@H]1[C@H](OC)[C@@H](C)C(=O)N[C@H](C)[C@@H](O)c1ccccc1)OC)N(C)C(=O)[C@@H](NC(=O)[C@@H](NC)C(C)C)C(C)C` [MMAE] (H-[NMeV]V[Dil][Dolaproine]-X1), the EC50 was determined as 0.13 nM in experiment [1], 0.36 nM in experiment [2], 0.16 nM in experiment [3] and 0.11 nM in experiment [4].

(Values after US20260042847A1, “CYSTEINE ENGINEERED ANTIBODY CONSTRUCTS, CONJUGATES AND METHODS OF USE” (ZYMEWORKS INC., priority 2021, published 2026).)
